In series [1] the target is T1, GABAA α5/β3/γ2 (Homo sapiens (Human), UniProt P18507+P31644). As to the kind of experiment: Binding assay (Scintillation Proximity Assay, [3H]-Ro15-1788). As to conditions: membranes of HEK293 cells expressing GABAA α5/β3/γ2. As to the method:
The GABAAα5/β3/γ2 protein used for the Scintillation Proximity Assay was derived from membranes produced from HEK293 GABAA α5/β3/γ2 expressing HEK293 cell line. HEK293 GABAA α5/β3/γ2 expressing HEK293 cell line was cultured, then harvested and centrifuged the cells. Membranes were produced by homogenization of the cell pellet with a tissue homogenizer. The resulting homogenate was centrifuged at 48,000 g for 30 minutes, re-suspended and washed twice with 10 mM potassium phosphate buffer, pH 7.4. Final resuspension of membranes took place in buffer containing 10 mM potassium phosphate and 100 mM KCl.
For assay, test compound (50×) was added 0.5 μl per well to a white-walled clear-bottomed 384-well plate.
Full signal controls were prepared by the addition of 0.5 μl of DMSO to the appropriate wells. Mixture of 10 μl of protein and 10 μl of PVT-WGA beads (0.2 mg/well) were added to the plate. Both protein and bead were diluted to the desired concentration with 10 mM potassium phosphate, pH 7.4, containing 100 mM KCl. The plate was pre-incubated for 30 minutes at room temperature with shaking before initiation of the reaction by the addition of radioligand. 5 μl of [^3H]-Ro15-1788 was added at a concentration of 30 nM (5×) and the plates sealed. The reaction mix was incubated at room temperature overnight with gentle agitation on a plate shaker. The final DMSO concentration for all phases of the screening was 2% (v/v). At the end of the overnight incubation, the plates were centrifuged for two minutes at 1,000 rpm prior to reading on a Perkin Elmer Microbeta.
Concentration-response testing was performed in duplicate and the percent effect calculated for each replicate data point. The raw data was entered in Activity Base and the curves were fitted to the mean data using Excel and XL Fit, and shown as Ki.

Series [2] has as its target T1, GABAA α5/β3/γ2. The series is described as follows: Functional assay (PatchXpress automated patch-clamp), α5 subtype. The format is cell-based. Conditions: % change of GABA EC20 response; compound 1 μM; HEK293 cells. The source says: (§1) GABAA α5/β3/γ2 HEK293 cell line was used throughout the functional assay in PatchXpress (Molecular Devices), the automated patch-clamp system. Cells stably expressing the appropriate GABAA subtype (α5/β3/γ2, α1/β3/γ2, α2/β3/γ2 or α3/β3/γ2) were dissociated from poly-D-lysine treated tissue culture flasks using a mixture of one part TrypLE (Invitrogen, cat #12604): one part Dulbecco's Phosphate Buffered Saline (Invitrogen, cat #14190). The dissociated cells were re-suspended in growth media (D-MEM/F-12 media (Invitrogen, cat #11320) supplemented with 10% (v/v) Foetal Bovine Serum (Invitrogen, cat #10082) and 1% (v/v) non-essential amino acids (Invitrogen, cat #11140)) and allowed to recover for one hour at 37° C. in a humidified incubator with 5% CO2. At the end of the recovery period cells were centrifuged at 1,000 rpm for two minutes and the resulting pellet re-suspended in external solution (in mM; 137 NaCl, 4 KCl, 10 HEPES, 1.8 CaCl2, 1 MgCl2, 10 glucose, pH set to 7.35 with NaOH). Cells were counted and diluted to 2.5×10^6/ml in external solution. The patch-clamp assay protocol involved determination of current amplitude with control applications of GABA EC20 containing concentration-matched DMSO (0.3% v/v), then pre-incubation of the test compound for one minute prior to the addition of the same compound diluted with the GABA EC20. Compound and/or GABA was applied for five seconds, with two minute wash periods between applications. No wash period was present at the end of the compound pre-application stage. The internal solution comprised (in mM) 90 KCl, 50 KF, 11 EGTA, 10 HEPES, 1 MgCl2, 2 Mg-ATP, the pH was set to 7.35 with KOH and the holding potential was −60 mV. Compounds were assayed at a concentration of 1 μM.

For another series, the target named is GABAA α1/β3/γ2 (Homo sapiens (Human), UniProt P14867+P18507). As to the kind of experiment: Functional assay (PatchXpress automated patch-clamp), α1 subtype. It counts as cell-based. As to conditions: % change of GABA EC20 response; compound 1 μM; HEK293 cells.
Sequence of GABAA α1/β3/γ2 (P14867 28-456): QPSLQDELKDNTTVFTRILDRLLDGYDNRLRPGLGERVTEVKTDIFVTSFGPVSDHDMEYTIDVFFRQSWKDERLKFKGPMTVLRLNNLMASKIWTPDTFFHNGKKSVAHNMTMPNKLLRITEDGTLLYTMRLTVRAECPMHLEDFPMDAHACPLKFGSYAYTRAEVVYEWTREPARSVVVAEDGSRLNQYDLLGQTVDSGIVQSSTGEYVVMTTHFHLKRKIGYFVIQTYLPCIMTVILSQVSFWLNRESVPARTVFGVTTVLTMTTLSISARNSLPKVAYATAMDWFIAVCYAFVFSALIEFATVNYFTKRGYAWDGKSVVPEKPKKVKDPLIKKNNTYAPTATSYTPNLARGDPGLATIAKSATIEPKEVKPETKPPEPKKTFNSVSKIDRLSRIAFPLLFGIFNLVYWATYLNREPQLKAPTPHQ
Sequence of GABAA α1/β3/γ2 (P28472 26-473 partner): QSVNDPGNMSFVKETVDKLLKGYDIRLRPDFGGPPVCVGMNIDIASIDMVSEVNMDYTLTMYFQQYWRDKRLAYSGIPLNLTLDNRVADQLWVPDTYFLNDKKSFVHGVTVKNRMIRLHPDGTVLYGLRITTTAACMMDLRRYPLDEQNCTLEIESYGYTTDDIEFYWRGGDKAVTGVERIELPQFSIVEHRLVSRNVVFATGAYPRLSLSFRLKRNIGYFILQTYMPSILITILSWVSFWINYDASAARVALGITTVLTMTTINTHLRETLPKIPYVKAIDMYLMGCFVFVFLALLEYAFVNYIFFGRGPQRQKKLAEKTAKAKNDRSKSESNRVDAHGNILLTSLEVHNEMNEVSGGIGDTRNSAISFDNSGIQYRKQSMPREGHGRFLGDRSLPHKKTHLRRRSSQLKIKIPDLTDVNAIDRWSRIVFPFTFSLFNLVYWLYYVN
Sequence of GABAA α1/β3/γ2 (P18507 40-475): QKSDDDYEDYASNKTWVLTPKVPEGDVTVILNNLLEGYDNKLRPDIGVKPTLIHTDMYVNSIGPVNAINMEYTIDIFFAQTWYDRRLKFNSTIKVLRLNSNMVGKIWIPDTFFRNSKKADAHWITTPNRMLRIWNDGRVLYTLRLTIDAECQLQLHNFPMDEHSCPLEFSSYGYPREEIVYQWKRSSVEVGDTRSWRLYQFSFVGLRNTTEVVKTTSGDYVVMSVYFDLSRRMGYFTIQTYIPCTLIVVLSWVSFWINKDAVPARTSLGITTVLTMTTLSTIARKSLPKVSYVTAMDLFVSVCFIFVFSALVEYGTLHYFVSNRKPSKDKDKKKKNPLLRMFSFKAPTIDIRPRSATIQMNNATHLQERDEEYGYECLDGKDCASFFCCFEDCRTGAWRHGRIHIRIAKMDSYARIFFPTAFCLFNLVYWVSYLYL
From the text: as §1

Series [3] is described as follows: Cryopreserved hepatocyte stability. The format is in vitro ADME. Conditions: human hepatocytes 0.5 million cells/mL, 1 μM, 37° C.; compound remaining; time point not stated. As to the method: Hepatocyte stability assays were performed using pooled human cryopreserved hepatocytes. Test and control compounds (testosterone, midazolam, 4-methylumbelliferone), prepared in DMSO, were incubated at an initial concentration of 1 μM (0.25% DMSO final, n=2) with hepatocytes at cell densities of 0.5 million cells/mL for both species at 37° C. Aliquots were removed at 0, 10, 20, 45 and 90 minutes for termination of reactions and compound extraction with acetonitrile containing an analytical internal standard. Samples were centrifuged and the supernatant fractions analysed for parent compound by mass spectrometry (LC-MS/MS).
(§2) The amount of compound remaining (expressed as %) was determined from the MS response in each sample relative to that in the T=0 samples (normalised for internal standard).
Ln plots of the % remaining were used to determine the half-life for compound disappearance using the relationship: t½(min)=−0.693/λ where λ is the slope of the Ln % remaining vs time curve. Hepatic Microsomal Stability: Half-life/Intrinsic Clearance Format

A short description of series [4]: Hepatic microsomal stability. The format is in vitro ADME. Conditions: human microsomes 0.5 mg protein/mL, NADPH, 1 μM, 37° C.; compound remaining; time point not stated. As to the method: Microsomal stability assays were performed using pooled hepatic microsomes from human. Test and control compounds (propranolol or dextromethorphan, midazolam), prepared in DMSO, were incubated at an initial concentration of 1 μM (0.25% DMSO final, n=2) with microsomes (0.5 mg protein/mL) at 37° C. in the presence of the cofactor, NADPH (1 mM). Aliquots were removed at 0, 5, 10, 20 and 40 minutes for termination of reactions and compound extraction with acetonitrile containing an analytical internal standard. Samples were centrifuged and the supernatant fractions analysed for parent compound by mass spectrometry (LC-MS/MS).
as §2
Ln plots of the % remaining were used to determine the half-life for compound disappearance using the relationship: t½(min)=−0.693/λ where λ is the slope of the Ln % remaining vs time curve.

T1 sequence (P31644 32-462): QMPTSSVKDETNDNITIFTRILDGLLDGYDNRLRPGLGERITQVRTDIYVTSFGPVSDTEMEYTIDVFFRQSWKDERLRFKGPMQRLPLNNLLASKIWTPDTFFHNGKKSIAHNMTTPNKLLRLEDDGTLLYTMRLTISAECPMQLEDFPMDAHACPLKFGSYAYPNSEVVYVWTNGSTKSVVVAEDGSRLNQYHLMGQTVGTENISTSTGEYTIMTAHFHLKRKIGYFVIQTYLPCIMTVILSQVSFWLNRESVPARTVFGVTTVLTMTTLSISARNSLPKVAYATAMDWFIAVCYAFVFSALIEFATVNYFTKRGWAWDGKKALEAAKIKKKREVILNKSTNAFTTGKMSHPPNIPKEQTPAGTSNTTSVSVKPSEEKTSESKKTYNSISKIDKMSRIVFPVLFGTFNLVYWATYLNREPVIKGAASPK
T1 sequence (P28472 26-473 partner): as the sequence (P28472 26-473 partner) above
T1 sequence (P18507 40-475): as the sequence (P18507 40-475) above

On GABAA α5/β3/γ2 [1], `O=C1COc2cc(Nc3cc4c(cn3)ncn4CC3CC3)ccc2N1C1CC1` [Example 37, 4-Cyclopropyl-7-((1-(cyclopropylmethyl)-1H-imidazo[4,5-c]pyridin-6-yl)amino)-2H-benzo[b][1,4]oxazin-3(4H)-one] registered a Ki of 38.8 nM. Further, the inhibition at 1 µM is 46% against GABAA α5/β3/γ2 [2] and -5% against GABAA α1/β3/γ2.
As to `CN1C(=O)COc2cc(Nc3cnc4ncn(CC5CC5)c4n3)ccc21` [Example 42, 7-((1-(Cyclopropylmethyl)-1H-imidazo[4,5-b]pyrazin-6-yl)amino)-4-methyl-2H-benzo[b][1,4]oxazin-3(4H)-one], the Ki at GABAA α5/β3/γ2 [1] worked out at 24 nM. In addition, the values for the inhibition at 1 µM at GABAA α5/β3/γ2 [2] and at GABAA α1/β3/γ2 were 55.9% and 0.2%, respectively.
On GABAA α5/β3/γ2 [1], `Cn1c(=O)oc2cc(Nc3cnc4ncn(CC5CC5)c4n3)ccc21` [Example 43, 6-((1-(Cyclopropylmethyl)-1H-imidazo[4,5-b]pyrazin-6-yl)amino)-3-methylbenzo[d]oxazol-2(3H)-one] showed an inhibition constant Ki of 42 nM. Further, the inhibition at 1 µM amounted to 55.1% at GABAA α5/β3/γ2 [2] and 8% against GABAA α1/β3/γ2.
The matching figures for `COCCN1C(=O)COc2cc(Nc3ncc4ncn(CC5CC5)c4n3)ccc21` [Example 46, 7-((9-(Cyclopropylmethyl)-9H-purin-2-yl)amino)-4-(2-methoxyethyl)-2H-benzo[b][1,4]oxazin-3(4H)-one]: 38 nM, 42.4% and -0.9%.
The matching figures for `CN1C(=O)COc2cc(Nc3cc4c(cc3F)ncn4CC3CC(F)(F)C3)cnc21` [Example 52, 7-((1-((3,3-Difluorocyclobutyl)methyl)-5-fluoro-1H-benzo[d]imidazol-6-yl)amino)-4-methyl-2H-pyrido[3,2-b][1,4]oxazin-3(4H)-one]: 6.7 nM, 41.8% and 7.5%.
On to `CN1C(=O)COc2cc(Nc3cc4c(cc3F)ncn4CCC3CC3)cnc21` [Example 67, 7-((1-(2-Cyclopropylethyl)-5-fluoro-1H-benzo[d]imidazol-6-yl)amino)-4-methyl-2H-pyrido[3,2-b][1,4]oxazin-3(4H)-one], for which the inhibitory constant (Ki) at GABAA α5/β3/γ2 [1] was 4.1 nM. Besides, the inhibition at 1 µM against GABAA α5/β3/γ2 [2] is 52.5%; against GABAA α1/β3/γ2, -0.5%.
As to `Cc1c(F)c(Nc2cc3c(cn2)N(C)C(=O)CO3)cc2c1ncn2CC1CC1` [Example 87, 7-((1-(Cyclopropylmethyl)-5-fluoro-4-methyl-1H-benzo[d]imidazol-6-yl)amino)-4-methyl-2H-pyrido[4,3-b][1,4]oxazin-3(4H)-one], the “hepatocyte stability (%)” value in series [3] is on record as 103%. Moreover, in series [4], the “microsomal stability (%)” value came out at 76%.
The matching figures for `Cc1c(F)c(Nc2ccc(-n3ccnc3)nc2)cc2c1ncn2CC1CC1` [Example 88, N-(6-(1H-Imidazol-1-yl)pyridin-3-yl)-1-(cyclopropylmethyl)-5-fluoro-4-methyl-1H-benzo[d]imidazol-6-amine]: 81% and 95%.
The matching figures for `Fc1cc(Nc2cc3c(ncn3CC3CC3)c(F)c2F)ccc1-n1ccnc1` [Example 95, 1-(Cyclopropylmethyl)-4,5-difluoro-N-(3-fluoro-4-(1H-imidazol-1-yl)phenyl)-1H-benzo[d]imidazol-6-amine]: 96% and 89%.
For the compound `CN1C(=O)COc2ncc(Nc3ccc4ncn(CC5CC5)c4n3)cc21` [Example 111, 7-((3-(Cyclopropylmethyl)-3H-imidazo[4,5-b]pyridin-5-yl)amino)-1-methyl-1H-pyrido[2,3-b][1,4]oxazin-2(3H)-one], on GABAA α5/β3/γ2 [1], affinity was put at a Ki of 34.6 nM. Further, the values for the inhibition at 1 µM against GABAA α5/β3/γ2 [2] and on GABAA α1/β3/γ2 were 44.4% and -0.3%, respectively.
For `Cc1nc(Nc2cnc3c(c2)OCC(=O)N3C)cc2c1ncn2CC1CC1` [Example 120, 7-((1-(Cyclopropylmethyl)-4-methyl-1H-imidazo[4,5-c]pyridin-6-yl)amino)-4-methyl-2H-pyrido[3,2-b][1,4]oxazin-3(4H)-one], the “hepatocyte stability (%)” value in series [3] turned out to be 85%. Besides, the “microsomal stability (%)” value in series [4] was 94%.
With `Cc1nc(Nc2ccc3c(n2)OCC(=O)N3C)cc2c1ncn2CC1CC1` [Example 124, 6-((1-(Cyclopropylmethyl)-4-methyl-1H-imidazo[4,5-c]pyridin-6-yl)amino)-1-methyl-1H-pyrido[2,3-b][1,4]oxazin-2(3H)-one], the “hepatocyte stability (%)” value in series [3] is reported as 75%. The “microsomal stability (%)” value in series [4] came out at 72%.
As for `CN1C(=O)COc2nc(Nc3cc(C(F)(F)F)c4ncn(CC5CC5)c4n3)ccc21` [Example 151, 6-((3-(Cyclopropylmethyl)-7-(trifluoromethyl)-3H-imidazo[4,5-b]pyridin-5-yl)amino)-1-methyl-1H-pyrido[2,3-b][1,4]oxazin-2(3H)-one], the “hepatocyte stability (%)” value in series [3] worked out at 101%. Also, in series [4], the “microsomal stability (%)” value is listed as 77%.
Take `Cc1cc(Nc2ccc3c(n2)OCC(=O)N3C)nc2c1ncn2CC1CC1` [Example 159, 6-((3-(Cyclopropylmethyl)-7-methyl-3H-imidazo[4,5-b]pyridin-5-yl)amino)-1-methyl-1H-pyrido[2,3-b][1,4]oxazin-2(3H)-one]: the Ki at GABAA α5/β3/γ2 [1] turned out to be 6.4 nM. Also, the inhibition at 1 µM at GABAA α5/β3/γ2 [2] was found to be 46.7%; against GABAA α1/β3/γ2, 4.8%.

These data come from patent US10016439B2, “Fused imidazole compounds” (ONO PHARMACEUTICAL CO., LTD., priority 2014, dated 2018).
